Measured values from US11667946B2, “Detection of beta-hemolytic pathogens” (TEMASEK LIFE SCIENCES LABORATORY LIMITED, priority 2016, dated 2023).

Tests used:
[1] = system: E. coli; assay: Membrane permeabilization with sodium hexametaphosphate (H33342 uptake); assay type: cell-based, Escherichia coli; conditions: H33342 agar with sodium hexametaphosphate
Procedure: (§1) Uptake of free H33342 by bacteria: The uptake of free H33342 was investigated by repeating the experiment as above but replacing liposomal H33342 with free H33342 dye (final concentration, 160 nM). Sodium hexametaphosphate (305553, Sigma-Aldrich) was added to a concentration of up to 0.3% for membrane permeabilization experiments.

[2] = system: S. pyogenes; assay: as above; assay type: cell-based, Streptococcus pyogenes; conditions: at 0.3%
Procedure: as §1

[3] = system: gram-negative bacteria; assay: Uptake of free H33342 by bacteria on BHI agar; assay type: cell-based
Procedure: as §1

[4] = system: gram-positive bacteria; assay: Uptake of free H33342 by bacteria on BHI agar; assay type: cell-based; conditions: 160 nM, overnight
Procedure: as §1

[5] = system: a variety of bacteria; assay: Culturing bacteria on BHI agar with free H33342; assay type: cell-based; conditions: 160 nM
Procedure: as §1

Compound | increase of colony fluorescence [1] [%] | lethality to bacterium [2] | uptake of dye [3] | colony association with / uptake of free dye [4] | lethality to bacteria [5]
O=P1([O-])OP(=O)([O-])OP(=O)([O-])OP(=O)([O-])OP(=O)([O-])OP(=O)([O-])O1.[Na+].[Na+].[Na+].[Na+].[Na+].[Na+] [sodium hexametaphosphate] | 80 | lethal | – | – | –
CCOc1ccc(-c2nc3ccc(-c4nc5ccc(N6CCN(C)CC6)cc5[nH]4)cc3[nH]2)cc1 [H33342, Hoechst 33342] | – | – | not taken up | fluoresce blue | non-lethal
